According to paper PMC4613240, “A Series of New Ligustrazine-Triterpenes Derivatives as Anti-Tumor Agents: Design, Synthesis, and Biological Evaluation” (International Journal of Molecular Sciences, 2015):
pIC50: −log10 of the molar value.

What was measured:
[1] = test system: HT-29 (human colon carcinoma); test: MTT cytotoxicity assay, HT-29; assay type: cell-based; settings: maximal tested concentration 20.0 μM
Method: (§1) The cytotoxicity of ligustrazine-triterpenes derivatives was evaluated on five tumor cell lines (Bel-7402, HepG2, HT-29, Hela, and MCF-7) using the standard MTT assay. In the study, the antineoplastic drug cisplatin (DDP) was selected as the positive control. The MDCK cell line was used to test the toxicity of the ligustrazine-triterpenes derivatives and DDP.
(§2) The cell lines Bel-7402 (human hepatocellular carcinoma), HepG2 (human hepatocellular carcinoma), HT-29 (human colon carcinoma), Hela (human cervical cancer), MCF-7 (human breast cancer) were included in this study. All these cell lines were provided by the Chinese Academy of Medical Sciences & Peking Union Medical College. Cultures were maintained as monolayers in RPMI 1640 supplemented with 10% (v/v) heat inactivated fetal bovine serum and 1% (v/v) enicillin/streptomycin (Thermo Technologies, New York, NY, USA) at 37 °C in a humidified atmosphere with 5% CO2. The ligustrazine derivatives under study were dissolved in DMSO (Sigma, St. Louis, MO, USA) and added at required concentrations to the cell culture. Cells incubated without the preparations served as the control.
(§3) The cytotoxicity of the compounds was evaluated on five cancer cell lines (Bel-7402, HepG2, HT-29, Hela, MCF-7) by the standard MTT assay. In short, exponentially growing cells were seeded into 96-well plates at a density 10^4 cells/mL. The plates were incubated at 37 °C in a humidified 5% CO2 atmosphere. Cells were allowed to adhere to the surface for 24 h and then treated with serial dilutions of the compounds for 72 h. Later, aliquots of [3-(4,5-dimethylthiazol-2-yl)-2,5-diphenyltetrazolium bromide] (MTT) solution (20 μL, 5 mg/mL) were added to each well and the incubation was continued for an additional 4 h. Then the supernatant medium was thrown away. The dark blue formazan crystals formed within the healthy cells were solubilized with DMSO (150 μL) and the absorbance was measured in a plate reader (BIORAD 550 spectrophotometer, Bio-rad Life Science Development Ltd., Beijing, China) at 490 nm. Wells containing no drugs were used as control group. The IC50 values were defined as the concentration of compounds that produced a 50% reduction of surviving cells and calculated using Logit-method. Tumor cell growth inhibitory rate was calculated in the following Equation (1): % inhibition = (1 − Sample group OD/Control group OD) × 100% (1)

[2] = test system: HepG2 (human hepatocellular carcinoma); test: MTT cytotoxicity assay, HepG2; assay type: cell-based; settings: for pIC50: 72 h, maximal tested concentration 20.0 μM
Method: as §1, §2, §3

[3] = test system: MCF-7 (human breast cancer); test: MTT cytotoxicity assay, MCF-7; assay type: cell-based; settings: maximal tested concentration 20.0 μM
Method: as §1, §2, §3

[4] = test system: Hela (human cervical cancer); test: MTT cytotoxicity assay, Hela; assay type: cell-based; settings: 72 h, maximal tested concentration 20.0 μM
Method: as §1, §2, §3

[5] = test system: Madin-Darby canine kidney cell line (MDCK); test: MTT cytotoxicity (nephrotoxicity/selectivity) assay, MDCK; assay type: cell-based; settings: Canis lupus familiaris
HepG2 cells = test: Intracellular free Ca2+ detection (Fluo-3AM, flow cytometry); assay type: cell-based, human; settings: 72 h, control MFI 4773
Method: A sustained increase in intracellular Ca^2+ concentrations is recognized as a factor for cell death or injury. The level of intracellular free Ca^2+ is examined by the fluorescent dye Fluo-3AM. The Fluo-3 AM is converted to Fluo-3 upon deacetylation within the cells, and Fluo-3 increases green fluorescence upon Ca^2+ binding. […] As the concentration of 4a increased from 5.0 to 6.0 to 7.0 μM, intracellular free Ca^2+ fluorescence increased dramatically (from 4800 to 5612 to 6955). It was in accordance with the tendencies of mitochondrial membrane potential and cell apoptosis.
The level of intracellular free Ca^2+ was examined by the fluorescent dye Fluo-3AM. HepG2 cells (1 × 10^5 cells/mL) in logarithmic growth phase were cultured in 6-well plates for 24 h at 37 °C in incubator with 5% CO2. After exposed to different concentrations of 4a (5, 6, 7 μM) for 72 h, cells were harvested and washed twice with cold PBS, then resuspended in HBSS buffer with 10 μM Fluo-3AM (Fluo-3AM, Shanghai Beyotime Biotech. Co., Ltd., Shanghai, China), and incubated for 30 min at 37 °C in the dark. Detection of intracellular Ca^2+ was carried out by the Flow Cytometer at 488 nm excitation wavelength.

`C=C(C)[C@@H]1CC[C@]2(C(=O)OCc3nc(C)c(C)nc3C)CC[C@]3(C)C(CCC4[C@@]5(C)CC[C@H](O)C(C)(C)C5CC[C@]43C)C12` (stereo partly drawn) [Compound 4a, 3β-Hydroxy-lup-20(29)-ene-28-oic acid-3,5,6-trimethylpyrazin-2-methyl ester] showed a pIC50 ([1]; 72 h) of 5.28, a pIC50 ([1]; Homo sapiens, HT-29, 72 h) greater than 5.28 and a pIC50 [2] of 5.35. The inhibition at 10 µM ([2]; Homo sapiens, HepG2, 10 μM, read-out: inhibition rate against HepG2) was 99.9%, the pIC50 ([2]; Homo sapiens, HepG2, 72 h) was greater than 5.28 and the pIC50 ([3]; 72 h) was 5.37. The pIC50 ([3]; Homo sapiens, MCF7, 72 h) was greater than 5.28, the pIC50 [4] was 5.36 and the pIC50 ([4]; Homo sapiens, HeLa) was greater than 5.28. The inhibition at 10 µM ([5]; MDCK, 10 μM, read-out: inhibition rate against MDCK) was roughly 26.5%, the pIC50 ([5]; maximal tested concentration 20.0 μM, toxicity to MDCK kidney cells) was less than 4.70 and the “intracellular free Ca2+ fluorescence (MFI), Fluo-3AM” value (shortened to “intracellular free Ca2+ fluorescence”) (HepG2 cells; HepG2, 5 μM) was 4800. The “intracellular free Ca2+ fluorescence” value (HepG2 cells; HepG2, 6 μM) was 5612 and the “intracellular free Ca2+ fluorescence” value (HepG2 cells; HepG2, 7 μM) was 6955.
